Laboratory results reported in patent publication US8877731B2, “Azido nucleosides and nucleotide analogs” (Alios Biopharma, Inc., priority 2010, dated 2014).
Like-named read-outs stand apart in the source and are kept apart here.

Experiments:
[1] = test system: RSV A2; experiment: RSV RT-PCR based assay; type: cell-based; conditions: human respiratory syncytial virus
Protocol: RT-PCR based assays were performed in HEp-2 cells (ATCC: CCL-23) at a concentration of 20000 cell/well were plated in 96 well plates and incubated overnight. Each of the test compounds were ⅓ serially diluted and dosed to HEp-2 cells in duplicates. The highest final concentration for each compound was 100 uM. After 24 hour compound pre-incubation, RSV A2 (ATCC: VR-1540) at MOI of 0.1 was added. Two wells per compound were set aside as uninfected, untreated cell controls (CC), and four wells per test compound received virus only as a control for virus replication (VC). The assay was stopped 4 days after virus infection and conditioned media was removed for viral RNA isolation. The quantities of the RSV virus were measured by real-time PCR using a set of RSV specific primers and probe. The data was analyzed with Prism software with EC50 defined as drug concentration that reduced the viral load 50% from the viral control (VC).
(§1) Compounds of Formula (I) and Formula (II) are active in the assay as noted in Tables 2 and 3, where ‘A’ indicates an EC50<1 μM, ‘B’ indicates an EC50 of >1 μM and <10 μM, ‘C’ indicates an EC50>10 μM and <100 μM, and ‘D’ indicates an EC50>100 μM.

[2] = test system: RSV Long strain; experiment: RSV CPE reduction assay; type: cell-based; conditions: human respiratory syncytial virus
Protocol: CPE reduction assays were performed as described by Sidwell and Huffman et al., Appl Microbiol. (1971) 22(5):797-801 with slight modifications. HEp-2 cells (ATCC) at a concentration of 6000 cell/well were infected with RSV Long strain (ATCC) at a multiplicity of infection (m.o.i.) of 0.01, and each of the test compounds were provided to duplicate wells at final concentrations starting from 100 μM using ⅓ stepwise dilutions. For each compound, two wells were set aside as uninfected, untreated cell controls (CC), and two wells per test compound received virus only as a control for virus replication (VC). […] At the end of the incubation, 20 μl of cell counting kit-8 reagent (CCK-8, Dojindo Molecular Technologies, Inc.) were added to each well. After 4 hour incubation, the absorbance was measured in each well according to manufacturer's instruction, and the 50% effective concentration (EC50) was calculated by using regression analysis, based on the mean O.D. at each concentration of compound.
as §1

[3] = RT-PCR assay, HEp-2 cells, 24 hour compound pre-incubation, RSV A2 at MOI 0.1, 4 days after infection, viral load, read-out: EC50
[4] = 144 h, CPE assay, HEp-2 cells infected with RSV Long strain, m.o.i. 0.01, 6 days, CCK-8 readout, read-out: EC50

C[C@H](NP(=O)(OC[C@@]1(N=[N+]=[N-])O[C@@H](n2cnc3c(=O)[nH]c(N)nc32)[C@H](O)[C@@H]1O)Oc1ccccc1)C(=O)OC1CCCCC1 (stereo partly drawn) [Compound 29, 4′-azidoguanosine 5′-[O-phenyl-N—((S)-cyclohexoxycarbonyleth-1-yl))phosphoramidate] gave an EC50 [1, 3] of less than 1 µM and an EC50 [2, 4] of less than 1 µM.

For CC(C)OC(=O)[C@H](C)NP(=O)(N[C@@H](C)C(=O)OC(C)C)OC[C@@]1(N=[N+]=[N-])O[C@@H](n2ccc(=O)[nH]c2=O)C(F)(F)[C@@H]1O [Compound 39, 4′-azido-2′-deoxy-2′-difluorouridine 5′-(N,N-bis((S)-isopropoxycarbonyleth-1-yl))phosphordiamidate], the EC50 [1, 3] was greater than 100 µM and the EC50 [2, 4] was greater than 100 µM.

CC(C)OC(=O)[C@H](C)NP(=O)(OC[C@@]1(N=[N+]=[N-])O[C@@H](n2ccc(=O)[nH]c2=O)[C@H](O)[C@@H]1O)Oc1ccccc1 (stereo partly drawn) [Compound 21, 4′-azidouridine 5′-(O-phenyl-N—(S)-1-(isopropoxycarbonyl)eth-1-yl)phosphoramidate] showed an EC50 [1, 3] of less than 1 µM and an EC50 [2, 4] of less than 1 µM.

Molecule CC(C)OC(=O)[C@H](C)NP(=O)(N[C@@H](C)C(=O)OC(C)C)OC[C@@]1(N=[N+]=[N-])O[C@@H](n2ccc(=O)[nH]c2=O)[C@H](O)[C@@H]1O [Compound 44, 4′-azidouridine 5′-(N,N′-bis((S)-1-(isopropoxycarbonyl)ethyl))phosphorodiamidate] has an EC50 [1, 3] greater than 100 µM and an EC50 [2, 4] greater than 100 µM.

[N-]=[N+]=N[C@]1(CO)O[C@@H](n2ccc(N)nc2=O)[C@H](Cl)[C@@H]1O [Compound 53, 4′-azido-2′-chloro-2′-deoxycytidine] showed an EC50 [1, 3] of 1 to 10 µM.

With CC(C)OC(=O)[C@H](C)NP(=O)(OC[C@@]1(N=[N+]=[N-])O[C@@H](n2ccc(N)nc2=O)C(F)(F)[C@@H]1O)Oc1ccccc1 (stereo partly drawn) [Compound 18, 4′-azido-2′-deoxy-2′,2′-difluorocytidine 5′-(O-phenyl-N—(S)-1-(isopropoxycarbonyl)ethyl)phosphoramidate] the EC50 [1, 3] was 1 to 10 µM and the EC50 [2, 4] was 1 to 10 µM.

In the case of [N-]=[N+]=N[C@]1(CO)O[C@@H](n2ccc(=O)[nH]c2=O)[C@@H](F)[C@@H]1O [Compound 20, 4′-azido-2′-deoxy-2′-fluoroarabinouridine], the EC50 [1, 3] is reported as greater than 100 µM and the EC50 [2, 4] is reported as greater than 100 µM.

Molecule CC(C)OC(=O)[C@H](C)NP(=O)(OC[C@@]1(N=[N+]=[N-])O[C@@H](n2ccc(=O)[nH]c2=O)C(F)(F)[C@@H]1O)Oc1ccccc1 (stereo partly drawn) [Compound 19, 4′-azido-2′-deoxy-2′,2′-difluorouridine 5′-(O-phenyl-N—(S)-1-(isopropoxycarbonyl)ethyl)phosphoramidate] has an EC50 [1, 3] greater than 100 µM and an EC50 [2, 4] greater than 100 µM.

With CC(C)OC(=O)[C@H](C)NP(=O)(OC[C@@]1(N=[N+]=[N-])O[C@@H](n2ccc(=O)[nH]c2=O)[C@@H](C)[C@@H]1O)Oc1ccccc1 (stereo partly drawn) [Compound 36, 4′-azido-2′-deoxy-2′-methylarabinouridine 5′-(O-phenyl-N—(S)-1-(isopropoxycarbonyl)ethyl)phosphoramidate] the EC50 [1, 3] was greater than 100 µM and the EC50 [2, 4] was greater than 100 µM.

For CC(C)OC(=O)[C@H](C)NP(=O)(OC[C@@]1(N=[N+]=[N-])O[C@@H](n2ccc(N)nc2=O)[C@H](F)[C@@H]1O)Oc1ccccc1 (stereo partly drawn) [Compound 23, 4′-azido-2′-deoxy-2′-fluorocytidine 5′-(O-phenyl-N—(S)-1-(isopropoxycarbonyl)ethyl)phosphoramidate], the EC50 [1, 3] was 1 to 10 µM and the EC50 [2, 4] was 1 to 10 µM.

For [N-]=[N+]=N[C@]1(CO)O[C@@H](n2ccc(=O)[nH]c2=O)[C@@H](O)[C@@H]1O [Compound 12, 4′-azidoarabinouridine], the EC50 [1, 3] was greater than 100 µM and the EC50 [2, 4] was greater than 100 µM.

For CC(C)OC(=O)[C@H](C)NP(=O)(OC[C@@]1(N=[N+]=[N-])O[C@@H](n2ccc(=O)[nH]c2=O)[C@@H](F)[C@@H]1O)Oc1ccccc1 (stereo partly drawn) [Compound 26, 4′-azido-2′-deoxy-2′-fluorouarabinoridine 5′-(O-phenyl-N—(S)-1-(isopropoxycarbonyl)ethyl)phosphoramidate], the EC50 [1, 3] was greater than 100 µM and the EC50 [2, 4] was greater than 100 µM.

For CC(C)OC(=O)[C@H](C)NP(=O)(OC[C@@]1(N=[N+]=[N-])O[C@@H](n2ccc(=O)[nH]c2=O)[C@@H](O)[C@@H]1O)Oc1ccccc1 (stereo partly drawn) [Compound 35, 4′-azidoarabinouridine 5′-(O-phenyl-N—(S)-1-(isopropoxycarbonyl)ethyl)phosphoramidate], the EC50 [1, 3] was less than 1 µM and the EC50 [2, 4] was less than 1 µM.

With [N-]=[N+]=N[C@]1(CO)O[C@@H](n2cnc3c(=O)[nH]c(N)nc32)[C@@H](O)[C@@H]1O [Compound 47, 4′-azidoarabinoguanosine] the EC50 [1, 3] was greater than 100 µM and the EC50 [2, 4] was greater than 100 µM.

Work on [N-]=[N+]=N[C@]1(CO)O[C@@H](n2ccc(N)nc2=O)[C@H](O)[C@@H]1O [Compound 7, 4′-azidocytidine] yielded an EC50 [1, 3] of 1 to 10 µM and an EC50 [2, 4] of 10 to 100 µM.

Work on [N-]=[N+]=N[C@]1(CO)O[C@@H](n2ccc(N)nc2=O)[C@@H](O)[C@@H]1O [Compound 11, 4′-azidoarabinocytidine] yielded an EC50 [1, 3] of less than 1 µM and an EC50 [2, 4] of less than 1 µM.

C[C@]1(F)[C@H](n2ccc(=O)[nH]c2=O)O[C@@](CO)(N=[N+]=[N-])[C@H]1O [Compound 51, 4′-azido-2′-deoxy-2′-α-fluoro-2′-β-methyluridine] gave an EC50 [1, 3] greater than 100 µM and an EC50 [2, 4] greater than 100 µM.

In the case of CC(C)OC(=O)[C@H](C)NP(=O)(OC[C@@]1(N=[N+]=[N-])O[C@@H](n2ccc(N)nc2=O)[C@H](O)[C@@H]1O)Oc1ccccc1 (stereo partly drawn) [Compound 22, 4′-azidocytidine 5′-(O-phenyl-N—(S)-1-(isopropoxycarbonyl)ethyl)phosphoramidate], the EC50 [1, 3] is reported as less than 1 µM and the EC50 [2, 4] is reported as less than 1 µM.

Molecule COP1(=S)OC[C@@]2(N=[N+]=[N-])O[C@@H](n3ccc(=O)[nH]c3=O)[C@H](F)[C@@H]2O1 (stereo partly drawn) [Compound 41, 4′-azido-2′-deoxy-2′-fluorouridine 3′,5′-cyclic thiophosphoric acid methyl ester] has an EC50 ([1]; HEp-2) greater than 100 µM and an EC50 ([2]; HEp-2, 144 h) greater than 100 µM.

CC(C)OP1(=S)OC[C@@]2(N=[N+]=[N-])O[C@@H](n3ccc(=O)[nH]c3=O)[C@H](F)[C@@H]2O1 (stereo partly drawn) [Compound 45, 4′-azido-2′-deoxy-2′-fluorouridine 3′,5′-cyclic thiophosphoric acid isopropyl ester] was tested, and the EC50 ([1]; HEp-2) was greater than 100 µM and the EC50 ([2]; HEp-2, 144 h) was greater than 100 µM.

CC(C)OC(=O)[C@H](C)NP(=O)(OC[C@@]1(N=[N+]=[N-])O[C@@H](n2ccc(N)nc2=O)[C@@H](O)[C@@H]1O)Oc1ccccc1 (stereo partly drawn) [Compound 34, 4′-azidoarabinocytidine 5′-(O-phenyl-N—(S)-1-(isopropoxycarbonyl)ethyl)phosphoramidate] was tested, and the EC50 [1, 3] was greater than 100 µM and the EC50 [2, 4] was greater than 100 µM.

C[C@@H]1[C@H](n2ccc(=O)[nH]c2=O)O[C@@](CO)(N=[N+]=[N-])[C@H]1O [Compound 6, 4′-azido-2′-deoxy-2′-methylarabinouridine] was tested, and the EC50 [2, 4] was greater than 100 µM.

In the case of [N-]=[N+]=N[C@@]12COP(=O)(O)O[C@H]1[C@@H](F)[C@H](n1ccc(=O)[nH]c1=O)O2 [Compound 32, 4′-azido-2′-deoxy-2′-fluorouridine 3′,5′-cyclic phosphate], the EC50 [2, 4] is reported as greater than 100 µM.

C[C@@H]1[C@H](n2ccc(N)nc2=O)O[C@@](CO)(N=[N+]=[N-])[C@H]1O [Compound 9, 4′-azido-2′-deoxy-2′-methylarabinocytidine] gave an EC50 [2, 4] greater than 100 µM.

Work on [N-]=[N+]=N[C@]1(CO)O[C@@H](n2ccc(=O)[nH]c2=O)[C@H](O)[C@@H]1O [Compound 8, 4′-azidouridine] yielded an EC50 [2, 4] greater than 100 µM.
